In patent US12246076B2, “Radiolabeled compounds for in vivo imaging of gastrin-releasing peptide receptor (GRPR) and treatment of GRPR-related disorders” (PROVINCIAL HEALTH SERVICES AUTHORITY, priority 2022, dated 2025):

Columns and labels:
[1] = In vivo plasma stability, radio-HPLC of plasma at 15 min p.i.; conditions: healthy male NRG mice (n=3), 15 min post-injection
Experimental: In vivo plasma stability studies were conducted for ^68Ga-labeled tracers to evaluate metabolic stability at 15 min p.i. Approximately 5.56 to 15.3 MBq of ^68Ga-LW01025, ^68Ga-LW01029, ^68Ga-LW01107, ^68Ga-LW01108, ^68Ga-LW01110, ^68Ga-LW01102, or ^68Ga-LW01142 were injected via tail vein into three male NRG mice, respectively. At 15 min p.i., mice were sedated and euthanized and their blood and urine were collected. The plasma was extracted from whole blood with ACN, vortexed, centrifuged, and the supernatant collected. The plasma and urine were analyzed with radio-HPLC (C18 analytical column; flow rate: 2.0 mL/min). The HPLC condition was same as the HPLC condition for quality control.
The in vivo studies were similarly performed according to the procedure set forth in Example 1. […] The present invention has been described with regard to one or more embodiments.

[2] = Ex vivo biodistribution in PC-3 tumor-bearing mice; conditions: male, mouse, iv, total radioactivity, 1 h post-injection, n = 4; for tissue uptake at 1 h: mice bearing PC-3 tumor xenografts; for tissue to tissue ratio at 1 h: uptake ratio
Experimental: All imaging and biodistribution studies were performed using male NOD.Cg-Rag1^tm1MoM II2rg^tm1WI/SzJ (NRG) mice and conducted according to the guidelines established by the Canadian Council on Animal Care and approved by Animal Ethics Committee of the University of British Columbia. For tumor inoculations, mice were anesthetized by inhalation with 2% isoflurane in oxygen and implanted subcutaneously with 5×10^6 PC-3 cells below the left shoulder. Imaging and biodistribution studies were performed only after tumors grew to 5-8 mm in diameter.
For PET/CT imaging studies, ˜3-4 MBq of the ^68Ga-labeled tracer was injected through the tail vein. Mice were allowed to recover and roam freely in the cages after injecting the tracer. At 45 min post-injection (p.i.), mice were sedated again and positioned on the scanner. First, a 10 min CT scan was conducted for localization and attenuation correction for reconstruction of PET images, before a 10 min PET image was acquired. Heating pads were used during the entire procedure to keep the mice warm. For ex vivo biodistribution studies, mice were injected with ˜1.5-3 MBq of the ^68Ga-labeled tracer. At 1 h p.i., mice were euthanized, blood was drawn from heart, and organs/tissues of interest were collected, rinsed with PBS, blotted dry, weighed, and counted using an automated gamma counter. The uptake in each organ/tissue was normalized to the injected dose and expressed as the percentage of the injected dose per gram of tissue (% ID/g).
All imaging and biodistribution studies were performed using male NOD.Cg-Rag1tm1Mom II2rgtm1WjI/SzJ (NRG) mice and conducted according to the guidelines established by the Canadian Council on Animal Care and approved by Animal Ethics Committee of the University of British Columbia. For tumor inoculations, mice were anesthetized by inhalation with 2% isoflurane in oxygen and implanted subcutaneously with 5×10^6 PC-3 cells below the left shoulder. Imaging and biodistribution studies were performed only after tumors grew to 5-8 mm in diameter.
For PET/CT imaging studies, ˜5 MBq of the ^68Ga-labeled tracer was injected through the tail vein. Mice were allowed to recover and roam freely in the cages after injecting the tracer. At 45 min post-injection (p.i.), mice were sedated again and positioned on the scanner. First, a 10 min CT scan was conducted for localization and attenuation correction for reconstruction of PET images, before a 10 min PET image was acquired. Heating pads were used during the entire procedure to keep the mice warm. For ex vivo biodistribution studies, mice were injected with ˜3 MBq of the 68Ga-labeled tracer. At 1 h p.i., mice were euthanized, blood was drawn from heart, and organs/tissues of interest were collected, rinsed with PBS, blotted dry, weighed, and counted using an automated gamma counter.

[3] = target: T1, GRPR (Homo sapiens, UniProt P30550); conditions: literature (Heimbrook 1991; Lin 1995); cited from earlier work
T1 construct: endogenous in cells; host or cells: PC-3 prostate cancer cells
T1 sequence (P30550 whole entry): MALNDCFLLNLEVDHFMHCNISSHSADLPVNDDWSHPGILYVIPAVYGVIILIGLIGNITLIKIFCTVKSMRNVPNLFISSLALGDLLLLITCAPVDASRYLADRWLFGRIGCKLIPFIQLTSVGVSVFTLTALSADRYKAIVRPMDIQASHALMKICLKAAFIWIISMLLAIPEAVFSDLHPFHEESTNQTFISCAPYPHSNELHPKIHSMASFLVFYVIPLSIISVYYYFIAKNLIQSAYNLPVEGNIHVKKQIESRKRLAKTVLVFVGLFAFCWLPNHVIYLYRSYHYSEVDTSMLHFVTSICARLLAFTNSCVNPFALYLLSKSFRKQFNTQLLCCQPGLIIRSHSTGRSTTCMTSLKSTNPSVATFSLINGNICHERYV

[4] = NRG, PC-3 tumor, Biodistribution PC3 tumor Mean
[5] = NRG, adrenal, Biodistribution Adrenal Mean
[6] = NRG, bone, Biodistribution Bone Mean
[7] = NRG, brain, Biodistribution Brain Mean
[8] = NRG, fat, Biodistribution Fat Mean
[9] = NRG, heart, Biodistribution Heart Mean
[10] = NRG, kidneys, Biodistribution Kidneys Mean
[11] = NRG, large intestine, Biodistribution Large Intestine Mean
[12] = NRG, liver, Biodistribution Liver Mean
[13] = NRG, lungs, Biodistribution Lungs Mean
[14] = NRG, muscle, Biodistribution Muscle Mean
[15] = NRG, pancreas, Biodistribution Pancreas Mean
[16] = NRG, small intestine, Biodistribution Small Intestine Mean
[17] = NRG, spleen, Biodistribution Spleen Mean
[18] = NRG, stomach, Biodistribution Stomach Mean
[19] = NRG, testes, Biodistribution Testes Mean
[20] = NRG, whole blood, Biodistribution Blood Mean

Question: Which “remaining intact in plasma” value [1] does the source give for `CC(C)C[C@@H](CN1CSC[C@H]1C(N)=O)NC(=O)[C@H](Cc1c[nH]cn1)NC(=O)CNC(=O)[C@@H](NC(=O)[C@H](C)NC(=O)[C@H](Cc1c[nH]c2ccccc12)NC(=O)[C@H](CCC(N)=O)NC(=O)[C@@H](Cc1ccccc1)NC(=O)CN1CCC(NC(=O)CN2CCN(CC(=O)O)CCN(CC(=O)O)CCN(CC(=O)O)CC2)CC1)C(C)C` [^68Ga-LW01045, metal not drawn] here?
Answer: 83.3±1.45%

Question: And the tissue uptake at 1 h [2, 4]?
Answer: 10.2 %ID/g

Question: What about the tissue uptake at 1 h [2, 5] of the same molecule?
Answer: 0.57 %ID/g

Question: And the tissue uptake at 1 h [2, 6]?
Answer: 0.19 %ID/g

Question: And the tissue uptake at 1 h [2, 7]?
Answer: 0.05 %ID/g

Question: What about the tissue uptake at 1 h [2, 8] of the same molecule?
Answer: 0.09 %ID/g

Question: What about the tissue uptake at 1 h [2, 9] of the same molecule?
Answer: 0.27 %ID/g

Question: And the tissue uptake at 1 h [2, 10]?
Answer: 2.51 %ID/g

Question: And the tissue uptake at 1 h [2, 11]?
Answer: 0.37 %ID/g

Question: And the tissue uptake at 1 h [2, 12]?
Answer: 2.61 %ID/g

Question: And the tissue uptake at 1 h [2, 13]?
Answer: 0.75 %ID/g

Question: And the tissue uptake at 1 h [2, 14]?
Answer: 0.15 %ID/g

Question: What about the tissue uptake at 1 h [2, 15] of the same molecule?
Answer: 2.81 %ID/g

Question: And the tissue uptake at 1 h [2, 16]?
Answer: 1.04 %ID/g

Question: What about the tissue uptake at 1 h [2, 17] of the same molecule?
Answer: 0.47 %ID/g

Question: And the tissue uptake at 1 h [2, 18]?
Answer: 0.32 %ID/g

Question: And the tissue uptake at 1 h [2, 19]?
Answer: 0.19 %ID/g

Question: And the tissue uptake at 1 h [2, 20]?
Answer: 0.76 %ID/g

Question: Which “remaining intact in plasma” value [1] does the source give for `CC(C)C[C@@H](CN1CSC[C@H]1C(N)=O)NC(=O)[C@H](Cc1cnc[nH]1)NC(=O)CN(C)C(=O)[C@@H](NC(=O)[C@H](C)NC(=O)[C@H](Cc1c[nH]c2ccccc12)NC(=O)[C@H](CCC(N)=O)NC(=O)[C@@H](Cc1ccccc1)NC(=O)CN1CCC(NC(=O)CN2CCN(CC(=O)O)CCN(CC(=O)O)CCN(CC(=O)O)CC2)CC1)C(C)C` [^68Ga-LW01090, metal not drawn] here?
Answer: 67.1±4.76%

Question: What about the tissue to tissue ratio at 1 h ([2]; NOD.Cg-Rag1tm1Mom Il2rgtm1Wjl/SzJ (NRG), tumor and kidney, Tumor/kidney Mean) of the same molecule?
Answer: 4.48

Question: What about the tissue to tissue ratio at 1 h ([2]; NOD.Cg-Rag1tm1Mom Il2rgtm1Wjl/SzJ (NRG), tumor and pancreas, Tumor/pancreas Mean) of the same molecule?
Answer: 7.95

Question: What about the tissue to tissue ratio at 1 h ([2]; NRG, PC-3 tumor / bone, Tumor/bone Mean) of the same molecule?
Answer: 175

Question: What about the tissue to tissue ratio at 1 h ([2]; NRG, PC-3 tumor / muscle, Tumor/muscle Mean) of the same molecule?
Answer: 82.3

Question: What about the tissue uptake at 1 h [2, 4] of the same molecule?
Answer: 15.7 %ID/g

Question: And the tissue uptake at 1 h [2, 5]?
Answer: 0.58 %ID/g

Question: What about the tissue uptake at 1 h [2, 6] of the same molecule?
Answer: 0.1 %ID/g

Question: And the tissue uptake at 1 h [2, 7]?
Answer: 0.03 %ID/g

Question: And the tissue uptake at 1 h [2, 8]?
Answer: 0.11 %ID/g

Question: And the tissue uptake at 1 h [2, 9]?
Answer: 0.24 %ID/g

Question: And the tissue uptake at 1 h [2, 10]?
Answer: 3.52 %ID/g

Question: What about the tissue uptake at 1 h [2, 11] of the same molecule?
Answer: 0.41 %ID/g

Question: And the tissue uptake at 1 h [2, 12]?
Answer: 0.64 %ID/g

Question: And the tissue uptake at 1 h [2, 13]?
Answer: 0.55 %ID/g

Question: What about the tissue uptake at 1 h [2, 14] of the same molecule?
Answer: 0.2 %ID/g

Question: And the tissue uptake at 1 h [2, 15]?
Answer: 1.98 %ID/g

Question: What about the tissue uptake at 1 h [2, 16] of the same molecule?
Answer: 0.66 %ID/g

Question: And the tissue uptake at 1 h [2, 17]?
Answer: 0.3 %ID/g

Question: What about the tissue uptake at 1 h [2, 18] of the same molecule?
Answer: 0.4 %ID/g

Question: What about the tissue uptake at 1 h [2, 19] of the same molecule?
Answer: 0.23 %ID/g

Question: What about the tissue uptake at 1 h [2, 20] of the same molecule?
Answer: 0.76 %ID/g

Question: Which “binding affinity to the GRPR” value [3] does the source give for litorin here?
Answer: very strong binding affinity
